Data taken from patent US11214624B2, “Method to prevent cancer metastasis and inhibit inflammation by inhibition of p68 interaction with calmodulin” (Proda Biotech LLC, priority 2012, dated 2022).
“Also recorded” adds a separate entry of the source. No end group written: not given here. TAT = TAT cell-permeable sequence

Tests used:
SW480 cells = test: Boyden chamber cell migration assay, SW480; assay type: cell-based
Description: (§1) Boyden chamber assay: QCM™ 24-Well Fluorimetric Cell Migration Assay kit was used to measure the migration of SW480 cells. The test cells were first treated under the different conditions in regular cell culture plates. The treated cells were re-suspended into optimum medium (without serum) and seeded into the inner chamber of the migration assay kit. The L-15 culture medium with 10% FBS was added to the outer chambers. After overnight incubation, medium in the inner chamber was removed and the cells attached to the outer bottom side were detached using the cell detachment buffer (included in the kit). The detached cells were then lysed using the cell lysis buffer (included in the kit). The amounts of the migrated cells were determined by measuring the fluorescence using λex=485 nm and λem=535 nm. The migration of the control cells with p68 knockdown was defined as 1.

E-cadherin and vimentin = test: PDGF stimulated EMT, cellular levels of EMT markers; assay type: cell-based
Text: We also examined whether the peptides would abolish PDGF stimulated EMT by analyzing the cellular levels of EMT markers, E-cadherin and vimentin. […] The effect of the PepIQ peptide on cancer metastasis was confirmed by an additional treatment using the PepIQ and a control peptide with a scrambled sequence (PepScram) (FIG. 6, Table 2, Table 4).

IQGAP1-CaM interaction = molecular target: T1, IQGAP1-CaM interaction (Homo sapiens, UniProt P0DP23); test: IQGAP1-CaM co-immunoprecipitation in SW480 cell extracts; assay type: cell-based; conditions: SW480 cells with/without multiple scratch-wound
T1 construct: endogenous in cells; host or cells: SW480
Description: (§2) To test whether the PepIQ peptide disrupted the interaction of IQGAP1 or Myosin-II with CaM, cell extracts of SW480 cells that were treated by the PepIQ with/without multiple scratch-wound were co-immunoprecipitated using the antibody against CaM. […] The results also excluded a possibility that the PepIQ sequestered all CaM in the cells therefore inhibited cell migration. Thus, these experiments supported the notion that cell migration strengthened the p68-CaM interaction, and the IQ peptide disrupted the p68-CaM interaction induced by migration, thereby inhibiting cell migration.

[1] = molecular target: T2, Myosin-II-CaM interaction (Homo sapiens, UniProt P0DP23); test: Myosin-CaM co-immunoprecipitation in SW480 cell extracts; assay type: cell-based; conditions: SW480 cells with/without multiple scratch-wound
T2 construct: endogenous in cells; host or cells: SW480
Description: as §2

SW620 xenograft [2] = test: Metastasis inhibition of SW620 xenograft (human CK-18 RT-PCR of spleen extracts); assay type: in vivo, nude mice; conditions: for Effect on SW620 metastasis: peptide 2 mg/kg i.p. daily for two weeks
Description: (§3) Metastasis inhibition of SW620 xenograft and orthotopic 4T1 tumors: All animal experiments were carried out in accordance with the guidelines of IACUC of Georgia State University. Nude mice or Balb/c mice (6 to 7 weeks old, Harlan Laboratory) were subcutaneously or orthotopically injected with 5×10^6 SW620 or 2×10^6 4T1 cells. Peptides at appropriate doses were administered to the tumor bearing mice by intraperitoneal (i.p.) injection at appropriate time intervals. Tumor formation and volumes were assessed every 2 days. Tumor volumes were measured by two perpendicular diameters of the tumors over a 4-week time course with the formula 4p/3×(width/2)^2×(length/2). The tumors and organs were collected and weighed at the end of the experiments. Tissue sections were prepared from harvested tumors and organs. Tissue sections were analyzed by either H&E or immune staining. For metastasis analyses of SW620 tumors, tissue extracts were prepared from spleens, total RNAs were extracted from the tissue extracts. RT-PCRs were performed with the isolated RNAs. For metastasis of 4T-1 cells, lung and liver were inspected.
The peptides were used to treat a nude mice xenograft of SW620 cells at dose of 2 mg/kg (i.p. daily dose for two weeks). SW620 cells were used because they contain high p68 Y593 phosphorylation (Carter, C L, et al. Oncogene 29:5427-5436 (2010); Yang, L, et al. Mol Cancer Res 3:355-363 (2005)). It is well established that the xenograft of SW620 will metastasize to lymph nodes, and the metastasis can be analyzed by examination of SW620 cells in the spleen (Liu, K, et al. J Immunol 171:4164-4174 (2003)).

p68 and CaM interaction = molecular target: T3, p68 and CaM interaction (Homo sapiens, UniProt P0DP23); test: CaM beads pull-down of p68; assay type: binding; conditions: no migration stimuli
T3 construct: purchased Abcam; host or cells: p68 comes from SW480 whole cell lysate (endogenous)
Description: CaM beads pull-down assay was used to determine whether the PepIQ peptide affected the p68 and CaM interaction. […] Thus, the p68-CaM interaction was examined under migration stimuli by co-immunoprecipitation with extracts of SW480 cells using an antibody against CaM. […] Similarly, there was a strong increase in the p68 and CaM co-precipitation upon the EGF treatment. Calmodulin beads pull-down: Whole cell lysate from SW480 cells was prepared as previously described (Yang L, et al. Cell 127:139-155 (2006); Yang L, et al. Mol Cancer Res 3:355-363 (2005)). The agarose beads conjugated with recombinant calmodulin (Abcam) were pre-washed with Ca2+ containing buffer (2 mM CaCl2, 50 mM NaCl in 50 mM Tris-HCl pH 7.5) or EGTA containing buffer (5 mM EGTA, 50 NaCl in 50 mM Tris-HCl pH 7.5). After washing, the beads were incubated with the whole cell lysates in the Ca^2+ containing or EGTA containing buffer. The beads were extensively washed after incubation. Finally, 2× SDS-loading buffer were added to the beads and the beads were heated to 85° C. for 10 minutes. The proteins that were pulled down by the CaM beads were analyzed by 10% SDS PAGE and subsequent immunoblot.

[3] = tested on: Mouse breast cancer 4T1 cells; test: Orthotopic 4T1 tumor metastasis model; assay type: in vivo, Balb/c mouse
Description: as §3
The PepIQ was very effective in inhibiting cancer metastasis with xenograft model of SW620 cells, indicating a potential application for metastasis intervention using the peptide or its derivatives. Thus, the effects of the peptide on metastasis in another cancer model was tested. Mouse breast cancer 4T1 cells were implanted into mammary gland of Balb/c mouse. Four days post-tumor implantation, the mice were treated by the PepIQ, the control peptide (PepScram), and buffer by 2 mg/kg daily dose for 14 days via i.p. injection. The mice were sacrificed at 26 days after tumor implantation. The primary tumors and major metastasis organs, lungs and liver, were collected and examined. […] The numbers of visible metastatic nodules in lung in the PepIQ treated group were much less and the nodules were much smaller than those in the PepScram and buffer treated groups (FIGS. 5B-5D). […] To test whether the PepIQ also affected the cell migration of 4T1 cells, cell migration assays were conducted.

4T1 cells = test: 4T1 cell migration (Boyden chamber and scratch-wound assays); assay type: cell-based, mouse
Description: as §1, with “Scratch-wound treatments: A scratch or multiple scratches using pipette tips were introduced into a 6 well cell culture plate. The cells were further cultured under serum starvation for 30 minutes, and were subsequently cultured for an additional indicated time. The scratch-treated cells were either directly visualized by microscopes or the cells were fixed and subsequently examined by immunostaining. Alternatively, the cells were collected and lysized. The prepared cellular extracts were then used for other analyses. Boyden” for “Boyden”, “1. […]” for “1.”

SW620 xenograft [4] = test: Metastasis inhibition of SW620 xenograft (human CK-18 RT-PCR of spleen extracts); assay type: in vivo, nude mice
p68-CaM interaction = molecular target: T4, p68-CaM interaction (Homo sapiens, UniProt P0DP23); test: p68-CaM co-immunoprecipitation in scratch-wound treated SW480 cells; assay type: cell-based; conditions: co-immunoprecipitation with antibody against CaM
T4 construct: co-immunoprecipitation with extracts of SW480 cells using an antibody against CaM; endogenous in cells; host or cells: SW480
Description: Scratch-wound treatments: A scratch or multiple scratches using pipette tips were introduced into a 6 well cell culture plate. The cells were further cultured under serum starvation for 30 minutes, and were subsequently cultured for an additional indicated time. The scratch-treated cells were either directly visualized by microscopes or the cells were fixed and subsequently examined by immunostaining. Alternatively, the cells were collected and lysized. The prepared cellular extracts were then used for other analyses.
CaM beads pull-down assay was used to determine whether the PepIQ peptide affected the p68 and CaM interaction. […] Thus, the p68-CaM interaction was examined under migration stimuli by co-immunoprecipitation with extracts of SW480 cells using an antibody against CaM. […] Similarly, there was a strong increase in the p68 and CaM co-precipitation upon the EGF treatment.
To test whether the PepIQ abolished the enhancement of the p68-CaM interaction induced by cell migration, the p68-CaM interaction was probed in cell lysate of SW480 cells that were treated by the peptide.

[5] = tested on: Rhodamine labeled microtubules; test: Microtubule gliding assay; assay type: biochemical; set-up: % of gliding microtubules (n = 50): dose or concentration left out as unconfirmed; conditions: for % of gliding microtubules (n = 50): only MTs with gliding speed >0.025 μm/min counted; for Mean gliding speed: only MTs with motility >0.05 μM/min
Description: The slide was blocked with the blocking buffer. For the slide loaded with HA-p68, 10 μl of calmodulin with 0.5 mM of Ca^2+ was added to the slide and was incubated for 10 minutes. After loading the slide was washed with the Ca^2+ containing wash buffer to remove the unbound proteins. The prepared Rodamine labeled microtubules were then loaded onto the slide. The same Ca^2+ containing wash buffer was used to remove unbound microtubules. The movement of microtubules was then recorded by the confocal microscope.
HA-p68 was purified from SW480 cells with/without scratch-wound treatment and attached to a glass slide. Rhodamine-labeled microtubule was then added to the glass slide. Migration of the microtubule in the presence and absence of ATP was then recorded.

[6] = Table 1, TAT-fused peptides 2 mg/kg i.p. daily for two weeks, mice with metastasis/mice in group
[7] = vs PepScram and buffer treated groups

PepIQ (FASGQINTFVSRGTPGYATGMHNGMNQQAPYAYPATAAAPFVSAGIQTSFRTGNPTGAYG)
Cell migration (SW480 cells; SW480 cells treated with peptide): almost completely inhibited
Levels of E-cadherin and vimentin (E-cadherin and vimentin): not significantly affected
IQGAP1-CaM interaction (IQGAP1-CaM interaction): not affected
Myosin-CaM interaction [1]: not affected
Metastasis rate (SW620 xenograft [2]; [6]): 1/5
Metastasis rate (SW620 xenograft [2]; Table 2, additional treatment, PepIQ vs scrambled control peptide): 2/5
Effect on SW620 metastasis (SW620 xenograft [2]): largely diminished; also recorded: inhibited the metastasis
Change in p68-CaM interaction (p68 and CaM interaction): did not lead to dramatic changes
Cancer metastasis in the lung (mice affected) ([3]; 2 mg/kg daily for 14 days i.p.): 3 out of 4
Mice with no micrometastasis lesion in liver tissue sections ([3]; 2 mg/kg daily for 14 days i.p.): two out of four
Average numbers of micrometastasis lesions in liver ([3]; 4 fields from three tissue sections per liver, vs buffer and PepScram groups): substantially less
Numbers of visible metastatic nodules in lung [3, 7]: much less
Size of metastatic nodules in lung [3, 7]: much smaller
Size of micrometastasis lesions in liver ([3]; vs control groups): substantially smaller
Cell migration of 4T1 cells (4T1 cells): dramatically reduced

eGFP-IQ: fusion protein containing amino acids 549-568 of p68 fused to the C-terminus of eGFP, expressed in SW620/SW480 cells (FVSAGIQTSFRTGNPTGTYQ; also: fused to C-terminus of eGFP)
Cell migration (SW480 cells; stable expression in SW480 cells): dramatically inhibited
Metastasis rate (SW620 xenograft [4]; Table 3, xenograft of SW620 cells expressing the protein): 2/6
Effect on cancer metastasis of the SW620 xenograft (SW620 xenograft [4]; protein expressed in SW620 cells): greatly reduced
Increase in the p68-CaM interaction upon multiple scratch wound (p68-CaM interaction): not dramatically strengthened

p68/Ca^2+-CaM: HA-p68 immunopurified from scratch-wound treated SW480 cells, in the presence of CaM and Ca2+
Maximum gliding speed ([5]; ATP): 0.52 ± 0.14 μm/min
% of gliding microtubules (n = 50) ([5]; ATP): 74.15 ± 1.20%
Mean gliding speed ([5]; ATP): 0.16 ± 0.12 μm/min
Maximum gliding speed ([5]; no ATP): 0.01 ± 0.00 μm/min
% of gliding microtubules (n = 50) ([5]; no ATP): 5.79 ± 3.13%
Mean gliding speed ([5]; no ATP): 0.00 ± 0.00 μm/min

PepY593: p68 aa 584-602 peptide MHNGMNQQAYAYPATAAAP (SEQ ID NO:2), without Y593 phosphorylation, TAT-fused at N-terminus; control peptide ({TAT}-MHNGMNQQAYAYPATAAAP)
Levels of E-cadherin and vimentin (E-cadherin and vimentin): not significantly affected
Metastasis rate (SW620 xenograft [2]; [6]): 5/5

PepPhoY593: p68 aa 584-602 peptide with Y593 phosphorylation, MHNGMNQQA[p]YAYPATAAAP (SEQ ID NO:3), TAT-fused at N-terminus
Levels of E-cadherin and vimentin (E-cadherin and vimentin): decrease in vimentin and an increase in Ecadherin
Metastasis rate (SW620 xenograft [2]; [6]): 3/5
Effect on SW620 metastasis (SW620 xenograft [2]): almost no effects; also recorded: no effects on cancer metastasis
